Molecules are shown by their SMILES. In brackets after ≈: the same amount, converted by molar mass. Read-outs that look alike come from different tables or passages of the source.

One series deals with T1, rat cortex A1 receptor (Rattus norvegicus, UniProt P25099).
T1 construct: from tissue; host or cells: rat cortex
T1 sequence (P25099 1-326): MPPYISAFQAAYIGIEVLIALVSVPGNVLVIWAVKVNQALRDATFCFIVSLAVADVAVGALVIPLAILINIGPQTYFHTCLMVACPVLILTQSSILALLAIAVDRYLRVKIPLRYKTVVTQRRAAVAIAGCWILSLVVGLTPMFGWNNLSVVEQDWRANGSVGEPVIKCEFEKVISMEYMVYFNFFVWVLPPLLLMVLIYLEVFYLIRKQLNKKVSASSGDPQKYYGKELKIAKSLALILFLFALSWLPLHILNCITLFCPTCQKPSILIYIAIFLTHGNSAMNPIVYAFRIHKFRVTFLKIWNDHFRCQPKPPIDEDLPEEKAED
Put plainly: Displacement of 3H-DPCPX from the rat cortex A1 receptor. Format: binding. Background: Displacement assays read how much labelled ligand stays bound in the presence of the test substance.

Series [1] has as its target T2, rat striatal A2A receptor (Rattus norvegicus, UniProt P30543). The note with it: for number of affinity states revealed: Tables 1 and 2; for number of affinity states revealed / effect of GTP on the high affinity states: lower pH; for high affinity states as proportion of the total number of binding sites: lower pH (5.5); for effect of GTP on the high affinity states: presence of GTP.

Series [2] concerns the target T2, rat striatal A2A receptor. The series is described as follows: biochemical.
Another series has as its target T3, human A2A receptor (Homo sapiens, UniProt P29274).
T3 construct: expressed in transfected cells; host or cells: HEK293
The series is described as follows: cAMP accumulation in HEK293 cells expressing the human A2A receptor. It is filed as cell-based. An excerpt:
The human A2A receptor was expressed in HEK293 cells, and the ability of agonists to stimulate cAMP accumulation assessed in the presence of rolipram to inhibit phosphodiesterase enzymes.
For orientation: Cyclic AMP is a second messenger, typically raised through Gs and lowered through Gi signalling.

Series [3] deals with carrageenan (CGN) induced thermal hyperalgesia. Put plainly: Carrageenan induced thermal hyperalgesia (paw withdrawal latency). It is filed as in vivo. The note with it: 0.6 mg/kg, given with carrageenan; compared with indomethacin 3 mg/kg po. As for the experimental part:
Carrageenan (2%, 10 microlitres) was administered into the right hind paw. A heat source was placed close to the treated and untreated hind paws, and the difference in the paw withdrawal latencies is shown. 2-methoxyadenosine was administered at the same time as carrageenan.

Series [4] can be described thus: Blood pressure and heart rate by implanted radiotelemetry. It is filed as in vivo. The note with it: 0.624 mg/kg p.o., rat. Here is the method: An implantable radiotelemetry device was placed in the abdominal cavity of 6 rats per group. The pressure catheter of the device was inserted in the abdominal aorta and two electrodes tunnelised under the skin in a lead II position (left side of abdominal cavity/right shoulder). Individual rats were placed in their own cage on a radioreceptor (DSI) for data acquisition. The effect of 0.6 mg/kg 2 methoxyadenosine or vehicle (p.o.) on blood pressure was then assessed. The results are shown in FIG. 5: A: blood pressure; B: heart rate.

Series [5] relates to thermal hyperalgesia caused by chronic constriction injury of the rat sciatic nerve. The series is described as follows: Chronic constriction injury model of neuropathic pain. Format: in vivo. The note with it: 0.624 mg/kg p.o., compared with carbamazepine 100 mg/kg s.c. An excerpt:
After approximately two weeks the rats developed thermal hyperalgesia in the operated leg as judged by the difference in paw withdrawal latencies of the right and left paws.

The test system of series [6] is carrageenan (CGN) induced inflammation. The series is described as follows: Carrageenan induced inflammation (paw volume by plethysmometry). The note with it: 62.4 and 624 μg/kg i.p.; compared with indomethacin 3 mg/kg po. Format: in vivo. As for the experimental part: Carrageenan (2%, 10 microlitres) was administered into the right hind paw, and the paw volume assessed by plethysomometry. 2-methoxyadenosine was administered at the same time as carrageenan.
(In the carrageenan paw model, swelling and tenderness develop within hours.)

A short description of series [7]: Plasma concentration after administration. The note with it: rat, in vivo.
In another series the target is adenosine A2A receptor. Conditions: cited from earlier work.
The subject of series [8] is carageenan-induced inflammation. Conditions: rats, 20 mg/kg po; cited from earlier work.
The conditions of series [9]: 20 mg/kg po; cited from earlier work.
Another series has as its target T4, human A1 receptor (Homo sapiens, UniProt P30542).
T4 sequence (P30542 1-326): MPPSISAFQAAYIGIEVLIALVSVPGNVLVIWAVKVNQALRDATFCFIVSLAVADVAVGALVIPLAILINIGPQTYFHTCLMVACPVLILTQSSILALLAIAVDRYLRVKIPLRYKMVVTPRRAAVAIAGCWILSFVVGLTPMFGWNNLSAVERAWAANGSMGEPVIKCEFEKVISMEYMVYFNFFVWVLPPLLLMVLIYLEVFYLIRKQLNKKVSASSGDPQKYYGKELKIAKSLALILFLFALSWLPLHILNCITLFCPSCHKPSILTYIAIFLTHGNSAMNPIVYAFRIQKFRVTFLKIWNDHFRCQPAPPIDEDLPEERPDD
Put plainly: Displacement of [3H]-DPCPX from the human A1 receptor. Format: binding. Conditions: read-out: Ki high affinity sites. From the text: Compounds that show a decrease in efficacy are likely to act as low efficacy partial agonists.

The test system of series [10] is isolated perfused superior mesenteric arterial bed of the rat. Conditions: pH of the perfusate reduced to 6.8; cited from earlier work.
Setting [11] is: pH 6.2, read-out: Ki High affinity.
[12] abbreviates: pH 6.2, read-out: Ki Low affinity.
Where [13] appears, read: pH 7.4, read-out: Ki High affinity.
[14] abbreviates: pH 7.4, read-out: Ki Low affinity.

T2 sequence (P30543 whole entry): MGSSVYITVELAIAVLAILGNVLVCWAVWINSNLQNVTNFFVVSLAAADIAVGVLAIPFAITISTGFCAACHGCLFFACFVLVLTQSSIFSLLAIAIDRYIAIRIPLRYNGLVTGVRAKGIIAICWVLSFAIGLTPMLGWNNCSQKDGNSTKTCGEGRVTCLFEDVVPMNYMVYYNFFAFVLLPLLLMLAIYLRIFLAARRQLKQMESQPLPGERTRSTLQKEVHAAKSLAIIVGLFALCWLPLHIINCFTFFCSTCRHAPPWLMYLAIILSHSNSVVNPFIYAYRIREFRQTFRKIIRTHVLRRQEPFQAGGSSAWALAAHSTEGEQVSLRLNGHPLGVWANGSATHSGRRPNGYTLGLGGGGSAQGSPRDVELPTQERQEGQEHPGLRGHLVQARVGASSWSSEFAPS
T3 sequence (P29274 whole entry): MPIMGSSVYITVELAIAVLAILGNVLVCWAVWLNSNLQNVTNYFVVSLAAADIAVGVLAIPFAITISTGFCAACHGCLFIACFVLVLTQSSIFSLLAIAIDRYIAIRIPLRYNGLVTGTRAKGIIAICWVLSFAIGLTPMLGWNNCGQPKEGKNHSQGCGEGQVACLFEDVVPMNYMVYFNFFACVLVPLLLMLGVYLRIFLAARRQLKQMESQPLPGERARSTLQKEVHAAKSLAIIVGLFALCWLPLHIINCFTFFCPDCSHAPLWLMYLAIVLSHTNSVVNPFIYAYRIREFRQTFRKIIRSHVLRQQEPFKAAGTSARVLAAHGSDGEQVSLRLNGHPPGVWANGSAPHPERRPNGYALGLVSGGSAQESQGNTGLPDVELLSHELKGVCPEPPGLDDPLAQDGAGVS

As for `Nc1nc(Cl)nc2c1ncn2[C@@H]1O[C@H](CO)[C@@H](O)[C@H]1O` [2-chloroadenosine, reference compound], the Ki at rat cortex A1 receptor (setting [11]) was determined as 3.7 nM; on rat cortex A1 receptor (setting [12]), 1660 nM; at rat cortex A1 receptor (setting [13]) it was 4.4 nM; on rat cortex A1 receptor (setting [14]), 1670 nM.
Regarding `CCOc1nc(N)c2ncn([C@@H]3O[C@H](CO)[C@@H](O)[C@H]3O)c2n1` [2-ethoxyadenosine], in series [1], the “number of affinity states revealed” value was “two apparent affinity states”. Besides, the “high affinity states as proportion of the total number of binding sites” value in series [1] is given as “approximately 25%”. The “effect of GTP on the high affinity states” value in series [1] is on record as “abolished”. In addition, the Ki was 2.8 nM in series [2] (Ki High affinity, pH 5.5); 245 nM in [2] (Ki High affinity, pH 7.4); 1200 nM in series [2] (Ki Low affinity, pH 5.5); 6600 nM in [2] (Ki Low affinity, pH 7.4).
`COc1nc(N)c2ncn([C@@H]3O[C@H](CO)[C@@H](O)[C@H]3O)c2n1` [2-methoxyadenosine]: the “efficacy at pH7.0 compared to pH7.4” value at human A2A receptor (cAMP accumulation in the presence of rolipram) was “Increased”. The “increase in efficacy at the adenosine A2A receptor” value on human A2A receptor (pH7.0 compared to pH7.4, FIG. 3) is listed as “approximately 100 fold”. Besides, the “carrageenan induced thermal hyperalgesia” value in series [3] is listed as “inhibits”. Further, in series [4], the “effect on blood pressure” value is reported as “no Significant Effect” and the “effect on heart rate” value is listed as “no Significant Effect”. Besides, the “thermal hyperalgesia, chronic constriction injury” value in series [5] was “inhibits”. Further, the “carrageenan induced inflammation (paw volume)” value in series [6] was “Inhibits”. For the same compound, the “plasma concentration with profound anti-hyperalgesic and anti-inflammatory activity” value in [7] was ≤ 0.2 µM. Moreover, in series [1], the “number of affinity states revealed” value is reported as “two apparent affinity states”, the “high affinity states as proportion of the total number of binding sites” value is reported as “approximately 25%” and the “effect of GTP on the high affinity states” value is “abolished”. Moreover, in series [1] (pH 7.4), the “Ki High affinity” value is “High affinity not detectable”. Further, in [1] (pH from 7.4 to 7.0 to 6.8, FIG. 2), the “change of affinity as the pH is reduced” value is “increases as the pH is reduced”. The EC50 on adenosine A2A receptor (Daly et al. 1993, read-out: EC50 at the adenosine A2A receptor) is 3000 nM. In addition, at adenosine A2A receptor (measured at pH7.4), the “EC50 at adenosine receptors” value was 0.9 µg/mL (≈ 3.03 µM). The EC50 on adenosine A2A receptor (measured at pH7.4, read-out: EC50 at adenosine receptors) was 3000 nM. Moreover, the “inhibition of carageenan-induced inflammation” value in [8] is reported as 25%. In addition, in series [9], the “reduction in heart rate” value is given as 25% and the “reduction in mean blood pressure” value is given as 41%. The compound further returned a Ki in series [2] (Ki High affinity, pH 5.5) of 12.1 nM. The compound also registered an inhibitory constant (Ki) in series [2] (Ki Low affinity, pH 5.5) of 1200 nM. The compound further had a Ki in series [2] (Ki Low affinity, pH 7.4) of 2500 nM.
Consider `Nc1nc(Cl)nc2c1ncn2[C@@H]1O[C@H](CO)C[C@H]1O` [3′-deoxy-2-chloroadenosine], for which, at rat cortex A1 receptor (both pH values (7.4 and 6.2)), the “effect of GppNHp on the high affinity state” value was “abolished”. Besides, the inhibition constant Ki at rat cortex A1 receptor (setting [11]) amounted to 17 nM; at rat cortex A1 receptor (setting [12]), 13400 nM; on rat cortex A1 receptor (setting [13]) it was 227 nM; at rat cortex A1 receptor (setting [14]), 11500 nM.
On to `COc1nc(N)c2ncn([C@@H]3O[C@H](CO)C[C@H]3O)c2n1` [3′-deoxy-2-methoxyadenosine], for which the Ki at human A1 receptor (pH 6.2) stood at 405 ± 114 nM; on human A1 receptor (pH 7.4), 158 ± 85 nM.
As for `Nc1nc(Nc2ccccc2)nc2c1ncn2[C@@H]1O[C@H](CO)[C@@H](O)[C@H]1O` [CV1808, 2-phenylamino-adenosine, reference compound], the Ki in series [2] (Ki, pH5.5, one affinity state) was found to be 35 ± 9 nM; in [2] (Ki, pH 7.4, one affinity state) it was 170 ± 20 nM.
Regarding `Nc1ncnc2c1ncn2[C@@H]1O[C@H](CO)[C@@H](O)[C@H]1O` [adenosine], in series [10], the “enhancement of dilator responses” value is 10 fold.

Usually Ki stands for a measure of affinity in units of concentration, obtained from inhibition or displacement. Usually EC50 stands for the concentration needed to bring the measured effect to its halfway point.

The values are drawn from patent US20070059773A1, “Identification of therapeutic compounds” (priority 2003, published 2007).
